Tests used:
Type in all cases: cell-based
SK-OV-3 = test: NCI 60 cell line panel (SRB), SK-OV-3; conditions: Homo sapiens; SK-OV-3, Ovarian Cancer; single dose of 10 μM; read-out: Cell Growth Percent
SNB-75 = test: NCI 60 cell line panel (SRB), SNB-75; conditions: Homo sapiens; SNB-75, CNS Cancer; single dose of 10 μM; read-out: Cell Growth Percent
BT-549 = test: NCI 60 cell line panel (SRB), BT-549; conditions: Homo sapiens; BT-549, Breast Cancer; single dose of 10 μM; read-out: Cell Growth Percent
NCI-H226 = test: NCI 60 cell line panel (SRB), NCI-H226; conditions: Homo sapiens; NCI-H226, Non-Small Cell Lung Cancer; single dose of 10 μM; read-out: Cell Growth Percent
OVCAR-5 = test: NCI 60 cell line panel (SRB), OVCAR-5; conditions: Homo sapiens; OVCAR-5, Ovarian Cancer; single dose of 10 μM; read-out: Cell Growth Percent
MDA-MB-468 = test: NCI 60 cell line panel (SRB), MDA-MB-468; conditions: Homo sapiens; MDA-MB-468, Breast Cancer; single dose of 10 μM; read-out: Cell Growth Percent
UACC-62 = test: NCI 60 cell line panel (SRB), UACC-62; conditions: Homo sapiens; UACC-62, Melanoma; single dose of 10 μM; read-out: Cell Growth Percent
HCC-2998 = test: NCI 60 cell line panel (SRB), HCC-2998; conditions: Homo sapiens; HCC-2998, Colon Cancer; single dose of 10 μM; read-out: Cell Growth Percent
RPMI-8226 = test: NCI 60 cell line panel (SRB), RPMI-8226; conditions: Homo sapiens; RPMI-8226, Leukemia; single dose of 10 μM; read-out: Cell Growth Percent
NCI-H522 = test: NCI 60 cell line panel (SRB), NCI-H522; conditions: Homo sapiens; NCI-H522, Non-Small Cell Lung Cancer; single dose of 10 μM; read-out: Cell Growth Percent
OVCAR-3 = test: NCI 60 cell line panel (SRB), OVCAR-3; conditions: Homo sapiens; OVCAR-3, Ovarian Cancer; single dose of 10 μM; read-out: Cell Growth Percent
786-0 = test: NCI 60 cell line panel (SRB), 786-0; conditions: Homo sapiens; 786-0, Renal Cancer; single dose of 10 μM; read-out: Cell Growth Percent
HOP-92 = test: NCI 60 cell line panel (SRB), HOP-92; conditions: Homo sapiens; HOP-92, Non-Small Cell Lung Cancer; single dose of 10 μM; read-out: Cell Growth Percent
NCI/ADR-RES = test: NCI 60 cell line panel (SRB), NCI/ADR-RES; conditions: Homo sapiens, Ovarian Cancer, single dose of 10 μM, read-out: Cell Growth Percent
MOLT-4 = test: NCI 60 cell line panel (SRB), MOLT-4; conditions: Homo sapiens; MOLT-4, Leukemia; single dose of 10 μM; read-out: Cell Growth Percent
CCRF-CEM = test: NCI 60 cell line panel (SRB), CCRF-CEM; conditions: Homo sapiens, Leukemia, single dose of 10 μM, read-out: Cell Growth Percent
HT29 = test: NCI 60 cell line panel (SRB), HT29; conditions: Homo sapiens, HT-29; HT29, Colon Cancer; single dose of 10 μM; read-out: Cell Growth Percent
IGROV1 = test: NCI 60 cell line panel (SRB), IGROV1; conditions: Homo sapiens, IGROV-1; IGROV1, Ovarian Cancer; single dose of 10 μM; read-out: Cell Growth Percent
HCT-15 = test: NCI 60 cell line panel (SRB), HCT-15; conditions: Homo sapiens; HCT-15, Colon Cancer; single dose of 10 μM; read-out: Cell Growth Percent
PC-3 = test: NCI 60 cell line panel (SRB), PC-3; conditions: Homo sapiens; PC-3, Prostate Cancer; single dose of 10 μM; read-out: Cell Growth Percent
SR = test: NCI 60 cell line panel (SRB), SR; conditions: Homo sapiens, Leukemia, single dose of 10 μM, read-out: Cell Growth Percent
M14 = test: NCI 60 cell line panel (SRB), M14; conditions: Homo sapiens; M14, Melanoma; single dose of 10 μM; read-out: Cell Growth Percent
A498 = test: NCI 60 cell line panel (SRB), A498; conditions: Homo sapiens; A498, Renal Cancer; single dose of 10 μM; read-out: Cell Growth Percent
SK-MEL-2 = test: NCI 60 cell line panel (SRB), SK-MEL-2; conditions: Homo sapiens; SK-MEL-2, Melanoma; single dose of 10 μM; read-out: Cell Growth Percent
OVCAR-8 = test: NCI 60 cell line panel (SRB), OVCAR-8; conditions: Homo sapiens; OVCAR-8, Ovarian Cancer; single dose of 10 μM; read-out: Cell Growth Percent
NCI-H23 = test: NCI 60 cell line panel (SRB), NCI-H23; conditions: Homo sapiens; NCI-H23, Non-Small Cell Lung Cancer; single dose of 10 μM; read-out: Cell Growth Percent
CAKI-1 = test: NCI 60 cell line panel (SRB), CAKI-1; conditions: Homo sapiens; CAKI-1, Renal Cancer; single dose of 10 μM; read-out: Cell Growth Percent
ACHN = test: NCI 60 cell line panel (SRB), ACHN; conditions: Homo sapiens, Renal Cancer, single dose of 10 μM, read-out: Cell Growth Percent
HS 578T = test: NCI 60 cell line panel (SRB), HS 578T; conditions: Homo sapiens, Breast Cancer, single dose of 10 μM, read-out: Cell Growth Percent
SF-539 = test: NCI 60 cell line panel (SRB), SF-539; conditions: Homo sapiens; SF-539, CNS Cancer; single dose of 10 μM; read-out: Cell Growth Percent
HL-60(TB) = test: NCI 60 cell line panel (SRB), HL-60(TB); conditions: Homo sapiens, Leukemia, single dose of 10 μM, read-out: Cell Growth Percent
TK-10 = test: NCI 60 cell line panel (SRB), TK-10; conditions: Homo sapiens; TK-10, Renal Cancer; single dose of 10 μM; read-out: Cell Growth Percent
UO-31 = test: NCI 60 cell line panel (SRB), UO-31; conditions: Homo sapiens; UO-31, Renal Cancer; single dose of 10 μM; read-out: Cell Growth Percent
LOX IMVI = test: NCI 60 cell line panel (SRB), LOX IMVI; conditions: Homo sapiens, Melanoma, single dose of 10 μM, read-out: Cell Growth Percent

SMILES | activity at 10 µM (SK-OV-3) [%] | activity at 10 µM (SNB-75) [%] | activity at 10 µM (BT-549) [%] | activity at 10 µM (NCI-H226) [%] | activity at 10 µM (OVCAR-5) [%] | activity at 10 µM (MDA-MB-468) [%] | activity at 10 µM (UACC-62) [%] | activity at 10 µM (HCC-2998) [%] | activity at 10 µM (RPMI-8226) [%] | activity at 10 µM (NCI-H522) [%] | activity at 10 µM (OVCAR-3) [%] | activity at 10 µM (786-0) [%] | activity at 10 µM (HOP-92) [%] | activity at 10 µM (NCI/ADR-RES) [%] | activity at 10 µM (MOLT-4) [%] | activity at 10 µM (CCRF-CEM) [%] | activity at 10 µM (HT29) [%] | activity at 10 µM (IGROV1) [%] | activity at 10 µM (HCT-15) [%] | activity at 10 µM (PC-3) [%] | also measured
CCOC(=O)c1c(C)oc2ncnc(Nc3ccc(C(=O)Nc4ccc(OC)cc4)cc3)c12 [Compound 14b] | 94.1 | 87.2 | 61.9 | 94.2 | 114 | 102 | 93.4 | 114 | 91.3 | 84 | 110 | 92.1 | 78.8 | 88.7 | 92.3 | 89.1 | 81.1 | 108 | 88.5 | 83.6 | activity at 10 µM (SR): 74.6%; activity at 10 µM (M14): 101%; activity at 10 µM (A498): 75.3%; activity at 10 µM (SK-MEL-2): 107%; activity at 10 µM (OVCAR-8): 98.9%; activity at 10 µM (NCI-H23): 95.6%; activity at 10 µM (CAKI-1): 96.6%; activity at 10 µM (ACHN): 95.2%; activity at 10 µM (HS 578T): 83.7%; activity at 10 µM (SF-539): 63.8%; activity at 10 µM (HL-60(TB)): 88.6%; activity at 10 µM (TK-10): 102%; activity at 10 µM (UO-31): 94.3%; activity at 10 µM (LOX IMVI): 93.2%
COc1cccc(NC(=O)Nc2ccc(Nc3ncnc4sc5c(c34)CCCC5)cc2)c1 [Compound 20c] | 88.4 | 62.7 | 85.8 | 90.1 | 106 | 114 | 106 | 118 | 102 | 81.2 | 99.1 | 100 | 118 | 106 | 81.3 | 94.6 | 104 | 106 | 97.8 | 89.6 | activity at 10 µM (SR): 84.6%; activity at 10 µM (M14): 89.8%; activity at 10 µM (A498): 91.3%; activity at 10 µM (SK-MEL-2): 116%; activity at 10 µM (OVCAR-8): 113%; activity at 10 µM (NCI-H23): 104%; activity at 10 µM (CAKI-1): 97%; activity at 10 µM (ACHN): 92%; activity at 10 µM (HS 578T): 74.4%; activity at 10 µM (SF-539): 60.2%; activity at 10 µM (HL-60(TB)): 91.1%; activity at 10 µM (TK-10): 129%; activity at 10 µM (UO-31): 61%; activity at 10 µM (LOX IMVI): 94.4%
CCOC(=O)c1c(C)oc2ncnc(Nc3ccc(NC(=O)Nc4cccc(Cl)c4)cc3)c12 [Compound 15d] | 93.2 | 70.6 | 61.5 | 54.8 | 122 | 49.7 | 69.1 | 105 | 46.1 | 57.1 | 80.8 | 79.1 | 50.6 | 43.7 | 49.2 | 31.5 | 37.1 | 78.4 | 58.9 | 41.2 | activity at 10 µM (SR): 53.6%; activity at 10 µM (M14): 48.6%; activity at 10 µM (A498): 63%; activity at 10 µM (SK-MEL-2): 72.7%; activity at 10 µM (OVCAR-8): 50.2%; activity at 10 µM (NCI-H23): 64%; activity at 10 µM (CAKI-1): 90.8%; activity at 10 µM (ACHN): 57.4%; activity at 10 µM (HS 578T): 80.6%; activity at 10 µM (SF-539): 16.6%; activity at 10 µM (HL-60(TB)): 88.4%; activity at 10 µM (TK-10): 79.1%; activity at 10 µM (UO-31): 50.3%; activity at 10 µM (LOX IMVI): 64.1%
CCOC(=O)c1c(C)oc2ncnc(Nc3ccc(NC(=O)Nc4ccc(CC)cc4)cc3)c12 [Compound 15i] | 88.2 | 80.5 | 84.4 | 104 | 107 | 128 | 108 | 114 | 95 | 83.7 | 118 | 99.8 | 94.3 | 97.2 | 98.6 | 93.7 | 103 | 110 | 105 | 90.7 | activity at 10 µM (SR): 81.6%; activity at 10 µM (M14): 99.9%; activity at 10 µM (A498): 109%; activity at 10 µM (SK-MEL-2): 120%; activity at 10 µM (OVCAR-8): 112%; activity at 10 µM (NCI-H23): 90.7%; activity at 10 µM (CAKI-1): 98.3%; activity at 10 µM (ACHN): 98.8%; activity at 10 µM (HS 578T): 97.7%; activity at 10 µM (SF-539): 89%; activity at 10 µM (HL-60(TB)): 103%; activity at 10 µM (TK-10): 112%; activity at 10 µM (UO-31): 94.7%; activity at 10 µM (LOX IMVI): 100%
